Source: patent publication US12583858B2 (Genentech, Inc., priority 2015, dated 2026)

Molecular target: T1, TDO2 (Homo sapiens, UniProt P48775)
T1 construct: decreased levels of NFK in SW48 cells (high TDO expressing cells)
Assay: TDO2 cell assay (NFK GreenScreen, SW48 cells)
Format: cell-based
Settings: SW48 cells (high TDO expressing), 200 uM tryptophan, 24 hours; Table 3; read-out: TDO2 Cell Fluor EC50

T1 sequence (P48775 whole entry): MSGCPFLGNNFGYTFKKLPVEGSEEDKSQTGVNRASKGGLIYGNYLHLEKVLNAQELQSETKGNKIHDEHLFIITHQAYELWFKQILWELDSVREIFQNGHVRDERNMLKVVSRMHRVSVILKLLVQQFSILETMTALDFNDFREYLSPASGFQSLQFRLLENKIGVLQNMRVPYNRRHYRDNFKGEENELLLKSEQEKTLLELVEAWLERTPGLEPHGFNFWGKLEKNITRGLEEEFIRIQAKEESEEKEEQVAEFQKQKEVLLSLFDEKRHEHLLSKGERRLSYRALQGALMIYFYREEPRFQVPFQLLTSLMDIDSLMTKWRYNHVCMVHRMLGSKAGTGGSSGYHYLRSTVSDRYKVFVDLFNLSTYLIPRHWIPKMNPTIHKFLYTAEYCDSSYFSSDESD

Row | SMILES | EC50 [µM]
1 | O[C@H]1CC[C@H]1[C@H]1c2ccccc2-c2cncn21 [Example 01b, (1S,2S)-2-((S)-5H-imidazo[5,1-a]isoindol-5-yl)cyclobutan-1-ol] | 0.15
2 | O[C@H]1CC[C@@H]1[C@@H]1c2ccccc2-c2cncn21 [Example 01c, (1S,2R)-2-((R)-5H-imidazo[5,1-a]isoindol-5-yl)cyclobutan-1-ol] | > 25
3 | O[C@H]1CC[C@@H]1[C@H]1c2ccccc2-c2cncn21 [Example 01e, (1S,2R)-2-((S)-5H-imidazo[5,1-a]isoindol-5-yl)cyclobutan-1-ol] | 1.1
4 | O[C@@H]1CCC[C@@H]1[C@@H]1c2ccccc2-c2cncn21 [Example 02a, (1R,2R)-2-((R)-5H-imidazo[5,1-a]isoindol-5-yl)cyclopentan-1-ol] | 12
5 | O[C@H]1CCC[C@H]1[C@H]1c2ccccc2-c2cncn21 [Example 02b, (1S,2S)-2-((S)-5H-imidazo[5,1-a]isoindol-5-yl)cyclopentan-1-ol] | 0.12
6 | O[C@@H]1CCC[C@@H]1[C@H]1c2ccccc2-c2cncn21 [Example 02c, (1R,2R)-2-((S)-5H-imidazo[5,1-a]isoindol-5-yl)cyclopentan-1-ol] | 0.3
7 | O[C@H]1CCC[C@H]1[C@@H]1c2ccccc2-c2cncn21 [Example 02d, (1S,2S)-2-((R)-5H-imidazo[5,1-a]isoindol-5-yl)cyclopentan-1-ol] | 14
8 | O[C@H]1CCCC[C@H]1[C@H]1c2ccccc2-c2cncn21 [Example 03a, (1S,2S)-2-((S)-5H-imidazo[5,1-a]isoindol-5-yl)cyclohexan-1-ol] | 0.077
9 | O[C@@H]1CCCC[C@H]1[C@H]1c2ccccc2-c2cncn21 [Example 03b, (1R,2S)-2-((S)-5H-imidazo[5,1-a]isoindol-5-yl)cyclohexan-1-ol] | 0.083
10 | O[C@H]1CCCC[C@@H]1[C@@H]1c2ccccc2-c2cncn21 [Example 03g, (1S,2R)-2-((R)-5H-imidazo[5,1-a]isoindol-5-yl)cyclohexan-1-ol] | 7.6
11 | O[C@@H]1CCCC[C@@H]1[C@@H]1c2ccccc2-c2cncn21 [Example 03h, (1R,2R)-2-((R)-5H-imidazo[5,1-a]isoindol-5-yl)cyclohexan-1-ol] | 13
12 | O[C@H]1CCOC[C@@H]1[C@@H]1c2ccccc2-c2cncn21 [Example 05a, (3S,4S)-3-((R)-5H-imidazo[5,1-a]isoindol-5-yl)-tetrahydro-2H-pyran-4-ol] | 23
13 | O[C@@H]1CCOC[C@H]1[C@H]1c2ccccc2-c2cncn21 [Example 05b, (3R,4R)-3-((S)-5H-imidazo[5,1-a]isoindol-5-yl)-tetrahydro-2H-pyran-4-ol] | 0.21
14 | O[C@@H]1CCOC[C@H]1[C@@H]1c2ccccc2-c2cncn21 [Example 05c, (3R,4R)-3-((R)-5H-imidazo[5,1-a]isoindol-5-yl)-tetrahydro-2H-pyran-4-ol] | > 25
15 | O[C@H]1CCOC[C@@H]1[C@H]1c2ccccc2-c2cncn21 [Example 05d, (3S,4S)-3-((S)-5H-imidazo[5,1-a]isoindol-5-yl)-tetrahydro-2H-pyran-4-ol] | 1
16 | O[C@@H]1COCC[C@@H]1[C@@H]1c2ccccc2-c2cncn21 [Example 06e, (3S,4R)-4-((R)-5H-imidazo[5,1-a]isoindol-5-yl)tetrahydro-2H-pyran-3-ol] | > 25
17 | O[C@H]1COCC[C@H]1[C@H]1c2ccccc2-c2cncn21 [Example 06f, (3R,4S)-4-((S)-5H-imidazo[5,1-a]isoindol-5-yl)tetrahydro-2H-pyran-3-ol] | 0.9
18 | O[C@H]1c2cncn2CC[C@@H]1[C@@H]1c2ccccc2-c2cncn21 [Example 07g, (7R,8R)-7-((R)-5H-imidazo[5,1-a]isoindol-5-yl)-5,6,7,8-tetrahydroimidazo[1,5-a]pyridin-8-ol] | > 25
19 | O[C@@H]1c2ccncc2CC[C@H]1[C@H]1c2ccccc2-c2cncn21 [Example 08a, (5S,6S)-6-((S)-5H-imidazo[5,1-a]isoindol-5-yl)-5,6,7,8-tetrahydroisoquinolin-5-ol] | 0.048
20 | CC(C)(C)OC(=O)N1CC[C@@H](O)[C@H]([C@H]2c3ccccc3-c3cncn32)C1 [Example 11a, (3S,4R)-tert-butyl 4-hydroxy-3-((S)-5H-imidazo[5,1-a]isoindol-5-yl)piperidine-1-carboxylate] | 15
21 | CC(C)(C)OC(=O)N1CC[C@H](O)[C@@H]([C@@H]2c3ccccc3-c3cncn32)C1 [Example 11b, (3R,4S)-tert-butyl 4-hydroxy-3-((R)-5H-imidazo[5,1-a]isoindol-5-yl)piperidine-1-carboxylate] | > 25
22 | CCS(=O)(=O)N1CC[C@H]([C@@H]2c3ccccc3-c3cncn32)[C@@H](O)C1 [Example 16b, (3R,4R)-1-(ethylsulfonyl)-4-((R)-5H-imidazo[5,1-a]isoindol-5-yl)piperidin-3-ol] | > 25
23 | CCS(=O)(=O)N1CC[C@H]([C@H]2c3ccccc3-c3cncn32)[C@@H](O)C1 [Example 16c, (3R,4R)-1-(ethylsulfonyl)-4-((S)-5H-imidazo[5,1-a]isoindol-5-yl)piperidin-3-ol] | 5.7

Row | SMILES | EC50 [µM]
24 | O[C@H]1CCC(F)(F)C[C@H]1[C@H]1c2ccccc2-c2cncn21 [Example 18a, (1S,2S)-4,4-difluoro-2-((S)-5H-imidazo[5,1-a]isoindol-5-yl)cyclohexan-1-ol] | 0.065
25 | O[C@@H]1CCC(F)(F)C[C@@H]1[C@@H]1c2ccccc2-c2cncn21 [Example 18e, (1R,2R)-4,4-difluoro-2-((R)-5H-imidazo[5,1-a]isoindol-5-yl)cyclohexan-1-ol] | 7.5
26 | CC1(C)C[C@H](O)[C@@H]1[C@H]1c2ccccc2-c2cncn21 [Example 22a, (1S,2S)-2-((S)-5H-imidazo[5,1-a]isoindol-5-yl)-3,3-dimethylcyclobutan-1-ol] | 0.06
27 | CC1(C)C[C@H](O)[C@H]1[C@@H]1c2ccccc2-c2cncn21 [Example 22c, (1S,2R)-2-((R)-5H-imidazo[5,1-a]isoindol-5-yl)-3,3-dimethylcyclobutan-1-ol] | > 25
28 | CC1(C)C[C@@H](O)[C@H]1[C@@H]1c2ccccc2-c2cncn21 [Example 22e, (1R,2R)-2-((R)-5H-imidazo[5,1-a]isoindol-5-yl)-3,3-dimethylcyclobutan-1-ol] | 3.5
29 | N#CCN1CC[C@H]([C@H]2c3ccccc3-c3cncn32)[C@@H](O)C1 [Example 27c, 2-((3R,4R)-3-hydroxy-4-((S)-5H-imidazo[5,1-a]isoindol-5-yl)piperidin-1-yl)acetonitrile] | > 25
30 | O[C@@H]1c2cccnc2CC[C@@H]1[C@@H]1c2ccccc2-c2cncn21 [Example 31a, (5S,6R)-6-((R)-5H-imidazo[5,1-a]isoindol-5-yl)-5,6,7,8-tetrahydroquinolin-5-ol] | > 25
31 | O[C@H]1c2cccnc2CC[C@@H]1[C@H]1c2ccccc2-c2cncn21 [Example 31b, (5R,6R)-6-((S)-5H-imidazo[5,1-a]isoindol-5-yl)-5,6,7,8-tetrahydroquinolin-5-ol] | 1.4
32 | O[C@@H]1c2cccnc2CC[C@H]1[C@@H]1c2ccccc2-c2cncn21 [Example 31g, (5S,6S)-6-((R)-5H-imidazo[5,1-a]isoindol-5-yl)-5,6,7,8-tetrahydroquinolin-5-ol] | 1.8
33 | O[C@H]1c2cccnc2CC[C@H]1[C@H]1c2ccccc2-c2cncn21 [Example 31h, (5R,6S)-6-((S)-5H-imidazo[5,1-a]isoindol-5-yl)-5,6,7,8-tetrahydroquinolin-5-ol] | 0.12
34 | N[C@@H]1COC[C@@H]1[C@@H]1c2ccccc2-c2cncn21 [Example 32a, (3S,4S)-4-[(5R)-5H-imidazo[4,3-a]isoindol-5-yl]oxolan-3-amine] | > 25
35 | N[C@H]1COC[C@H]1[C@H]1c2ccccc2-c2cncn21 [Example 32b, (3R,4R)-4-[(5S)-5H-imidazo[4,3-a]isoindol-5-yl]oxolan-3-amine] | 11
36 | N[C@@H]1COC[C@@H]1[C@H]1c2ccccc2-c2cncn21 [Example 32d, (3S,4S)-4-[(5S)-5H-imidazo[4,3-a]isoindol-5-yl]oxolan-3-amine] | > 25
37 | O[C@@H]1CCOC[C@H]1[C@@H]1c2ccc(F)cc2-c2cncn21 [Example 34d, (3R,4R)-3-((R)-8-fluoro-5H-imidazo[5,1-a]isoindol-5-yl)-tetrahydro-2H-pyran-4-ol] | 0.23
38 | NS(=O)(=O)N1CC[C@@H]([C@H]2c3ccccc3-c3cncn32)[C@H](O)C1 [Example 39a, (3S,4S)-3-hydroxy-4-((S)-5H-imidazo[5,1-a]isoindol-5-yl)piperidine-1-sulfonamide] | > 25
39 | C[C@@H](O)[C@@H]1c2ccccc2-c2cncn21 [Example 42a, (R)-1-((S)-5H-imidazo[5,1-a]isoindol-5-yl)ethan-1-ol] | > 25
40 | C[C@@H](O)[C@H]1c2ccccc2-c2cncn21 [Example 42b, (R)-1-((R)-5H-imidazo[5,1-a]isoindol-5-yl)ethan-1-ol] | 11.8
41 | C[C@H](O)[C@@H]1c2ccccc2-c2cncn21 [Example 42d, (S)-1-((S)-5H-imidazo[5,1-a]isoindol-5-yl)ethan-1-ol] | 23.7
42 | OC1(C2c3ccccc3-c3cncn32)CC(F)(F)C1 (stereo not drawn) [Example 50, 3,3-difluoro-1-(5H-imidazo[5,1-a]isoindol-5-yl)cyclobutan-1-ol] | 2.6
43 | O[C@@H]1c2ccnn2CC[C@@H]1[C@@H]1c2ccccc2-c2cncn21 [Example 56c, (4S,5R)-5-((R)-5H-imidazo[5,1-a]isoindol-5-yl)-4,5,6,7-tetrahydropyrazolo[1,5-a]pyridin-4-ol] | > 25
44 | O[C@H]1c2ccnn2CC[C@@H]1[C@@H]1c2ccccc2-c2cncn21 [Example 56d, (4R,5R)-5-((R)-5H-imidazo[5,1-a]isoindol-5-yl)-4,5,6,7-tetrahydropyrazolo[1,5-a]pyridin-4-ol] | > 25
45 | O[C@H]1c2ccnn2CC[C@H]1[C@H]1c2ccccc2-c2cncn21 [Example 56e, (4R,5S)-5-((S)-5H-imidazo[5,1-a]isoindol-5-yl)-4,5,6,7-tetrahydropyrazolo[1,5-a]pyridin-4-ol] | 0.76
